Experiments:
[1] = system: DMBA-induced mammary tumors; experiment: Tests Against DMBA-Induced mammary tumors; assay type: in vivo, adult female virgin rats
Description: Mammary tumors were induced in adult female virgin rats by a single 20-mg. oral dose of 7,12-dimethylbenzanthracene. Within about six weeks, visible and palpable tumors were present in the mammary tissue of the rats, and the rats were allocated into treatment and control groups in such a way that each group contained animals having approximately the same size and number of tumors. The size of the tumors was estimated by measuring their cross-sectional area. […]
[…] The treated animals received 1 mg./kg. per day of 6-methoxy-2-(4-hydroxyphenyl)-3-[4-(2-piperidinoethoxy)benzoyl]benzo[b]thiophene, hydrochloride, as a subcutaneous injection in corn oil. The animals were not ovariectomized at the end of the experiment.

[2] = system: androgen-stimulated prostate growth; experiment: Anti-Androgen Test, immature male rats (ventral prostate weight); assay type: in vivo
Procedure: The animals used in this test were adult male rats having a body weight which averaged about 330 g. when the experiment ended. All of the animals to be used in the experiment were castrated by the scrotal route, and were held untreated for 3 days. On the fourth day, subcutaneous administration of 0.1 mg./day of an exogenous androgen, testosterone propionate, was begun, and was continued for seven consecutive days. An untreated control group of animals received injections of 0.1 ml./day of corn oil as a blank treatment. The compound of this invention was administered orally or subcutaneously to the treated animals in 0.1 ml. of corn oil, at the same time that the androgen was administered. The animals were sacrificed 24 hours after the last injection of testosterone propionate, the ventral prostate glands were removed and weighed, and the mean of the weights of each treatment group was reported.
This experiment was carried out in the same manner as Experiment A above, except that the test animals were immature male rats, weighing about 120 g. each at sacrifice. Each treatment group consisted of six or seven animals. All treatments in this experiment were administered by subcutaneous injection. The amount of the androgen administered was only 20 mcg./day because of the small size of the animals.
This experiment was also conducted in immature rats having average body weight of about 115 g. when the experiment ended. In other respects, the experiment was as described under Experiment B above. The treatment groups consisted of ten animals each, except for the androgen only group, of 16 animals, and the 5 mg./kg. group, of nine animals.

estrogenic response [3] = experiment: Estrogenic Response Test, mature ovariectomized mice (uterine weight); assay type: in vivo, adult ovariectomized mice; conditions: Experiment E, s.c.
Procedure: (§1) The first test reported below is used to determine the estrogenic potency of compounds. It is well known that many compounds having antiestrogenic activity also, typically, have estrogenic activity. As has been explained, estrogenic activity is a liability in an antiestrogen, and thus it is important to identify antiestrogens having a minimum amount of estrogenic activity. This test was conducted with immature 40-45 g. female rats, immature 11-13 g. mice, and adult ovariectomized mice. The rats were tested in groups of six, and mice in groups of ten. All of the laboratory animals were from standardized strains and were equilibrated to the laboratory before the test started. Each test was begun by administering the test compound daily for three days, as a subcutaneous injection or by oral gavage, as indicated below in the reports of individual experiments. Untreated control animals were included in each experiment, along with animals to which estradiol was administered subcutaneously. The estradiol-treated animals provided positive controls, showing the physiological effect of a potent estrogen on the individual group of animals used in the experiment. […] The test animals were treated for three days and sacrificed on the fourth day, and the uteri were removed, freed of extraneous tissue, and blotted with paper towels. The uteri were weighed to the nearest 0.1 mg. The tables below report the results of representative experiments. The doses of estradiol and of the compound of this invention are given as the total of the three daily doses. The uterine weights are given, in mg., as the means of all of the organ weights of the animals in a group. Compounds are referred to by their example numbers above.

estrogenic response [4] = experiment: Estrogenic Response Test, immature mice (uterine weight); assay type: in vivo, immature 11-13 g. mice; conditions: Experiment D, s.c.
Procedure: as §1

[5] = system: estrogenic response of estradiol; experiment: Antiestrogenic Test, immature rats (uterine weight); assay type: in vivo
Procedure: This test was conducted with immature 40-45 g. female rats, immature 11-13 g. mice, and adult ovariectomized mice. The rats were tested in groups of six, and mice in groups of ten. All of the laboratory animals were from standardized strains and were equilibrated to the laboratory before the test started. Each test was begun by administering the test compound daily for three days, as a subcutaneous injection or by oral gavage, as indicated below in the reports of individual experiments.
The test animals were treated for three days and sacrificed on the fourth day, and the uteri were removed, freed of extraneous tissue, and blotted with paper towels. The uteri were weighed to the nearest 0.1 mg.
The uterine weights are given, in mg., as the means of all of the organ weights of the animals in a group. Compounds are referred to by their example numbers above.
The same standardized types of laboratory animals which were used in the experiments described above were also used in these experiments. […] Untreated control animals were used in each experiment. […] The dosage and sacrifice schedule, and the method of determining uterine weights and reporting data, were the same as the methods described above under Test 1.

[6] = Experiment B, 20 mg./kg./day, orally, four weeks
[7] = Experiment C, low dose 20 mg./kg./day, four weeks

`O=C(c1ccc(OCCN2CCCCC2)cc1)c1c(-c2ccc(O)cc2)sc2cc(O)ccc12` [Example 3, 6-hydroxy-2-(4-hydroxyphenyl)-3-[4-(2-piperidinoethoxy)benzoyl]benzo[b]thiophene] was tested, and the “average total cross-sectional area of tumor” value ([1]; Experiment A, oral 0.1, 5, 10, 20 mg./kg./day in successive two-week periods, 8 weeks) was 345 square millimeters, the “total cross-sectional area of tumor, lower end of range” value ([1]; Experiment A, oral, 8 weeks) was “complete regression” and the “total cross-sectional area of tumor, upper end of range” value ([1]; Experiment A, oral, 8 weeks, one animal, tumors not estrogen-dependent) was no more than 1550 sq. mm. For the same compound, the “animals with completely regressed tumors” value [1, 6] was “one of the compound-treated animals had completely regressed”, the “average total tumor area” value [1, 6] was 152 square millimeters and the “growth of the large tumor (668 square millimeters)” value ([1]; Experiment B, 20 mg./kg./day, orally, since second week, shrank after ovariectomy) was “its growth had been checked, and it had not significantly grown”. The average tumor area ([1]; Experiment C, high dose 40 mg./kg./day, four weeks) was 304 square millimeters, the “average cross-sectional tumor area” value [1, 7] was 441 square millimeters and the “tumor area, lower end of range” value [1, 7] was “no tumors present”. For the same compound, the “tumor area, upper end of range” value [1, 7] was no more than 1907 square millimeters, the “Mean Prostate Weight” value ([2]; Experiment B, 0.5 mg./kg./day s.c. + androgen 20 mcg./day) was 33.8 mg and the “average prostate weight, one animal excluded” value ([2]; Experiment B, 0.5 mg./kg./day s.c. + androgen, animal with 54 mg. prostate excluded) was 30.5. For the same compound, the “Mean Prostate Weight” value ([2]; Experiment B, 5 mg./kg./day s.c. + androgen 20 mcg./day) was 36.6 mg, the “Mean Prostate Weight” value ([2]; Experiment C, 0.05 mg./kg./day s.c. + androgen) was 34.0 mg and the “Mean Prostate Weight” value ([2]; Experiment C, 0.5 mg./kg./day s.c. + androgen) was 31.1 mg. For the same compound, the “Mean Prostate Weight” value ([2]; Experiment C, 5 mg./kg./day s.c. + androgen) was 29.0 mg, the “Uterine weight” value (estrogenic response [3]; total dose 3 mg.) was 23.1 mg and the “Uterine weight” value (estrogenic response [3]; total dose 0.3 mcg.) was 18.2 mg. For the same compound, the “Uterine weight” value (estrogenic response [3]; total dose 3 mcg.) was 25.6 mg, the “Uterine weight” value (estrogenic response [3]; total dose 30 mcg.) was 26.2 mg and the “Uterine weight” value (estrogenic response [3]; total dose 300 mcg.) was 24.8 mg. The “Uterine weight” value (estrogenic response [4]; total dose 3 mg.) was 14.6 mg, the “Uterine weight” value (estrogenic response [4]; total dose 0.03 mcg.) was 19.0 mg and the “Uterine weight” value (estrogenic response [4]; total dose 0.3 mcg.) was 19.3 mg. For the same compound, the “Uterine weight” value (estrogenic response [4]; total dose 3 mcg.) was 22.9 mg, the “Uterine weight” value (estrogenic response [4]; total dose 30 mcg.) was 23.9 mg and the “Uterine weight” value (estrogenic response [4]; total dose 300 mcg.) was 19.3 mg. For the same compound, the Uterine weight ([5]; Experiment C, 3 mg., oral + estradiol 0.3 mcg., s.c.) was 30.6 mg, the Uterine weight ([5]; Experiment C, 3 mcg., oral + estradiol 0.3 mcg., s.c.) was 55.0 mg and the Uterine weight ([5]; Experiment C, 30 mcg., oral + estradiol 0.3 mcg., s.c.) was 46.7 mg. The Uterine weight ([5]; Experiment C, 300 mcg., oral + estradiol 0.3 mcg., s.c.) was 31.3 mg, the Uterine weight ([5]; Experiment D, 3 mg., s.c. + estradiol 0.3 mcg.) was 28.0 mg and the Uterine weight ([5]; Experiment D, 3 mcg., s.c. + estradiol 0.3 mcg.) was 53.6 mg. The Uterine weight ([5]; Experiment D, 30 mcg., s.c. + estradiol 0.3 mcg.) was 33.7 mg, the Uterine weight ([5]; Experiment D, 300 mcg., s.c. + estradiol 0.3 mcg.) was 30.7 mg and the Uterine weight ([5]; Experiment E, 3 mg., s.c. + estradiol 0.09 mcg.) was 31.0 mg. For the same compound, the Uterine weight ([5]; Experiment E, 3 mcg., s.c. + estradiol 0.09 mcg.) was 42.5 mg, the Uterine weight ([5]; Experiment E, 30 mcg., s.c. + estradiol 0.09 mcg.) was 35.8 mg and the Uterine weight ([5]; Experiment E, 300 mcg., s.c. + estradiol 0.09 mcg.) was 33.7 mg. It also gave a Uterine weight ([5]; Experiment F, 3 mg., s.c. + estradiol 0.15 mcg.) of 36.2 mg, a Uterine weight ([5]; Experiment F, 3 mcg., s.c. + estradiol 0.15 mcg.) of 49.4 mg and a Uterine weight ([5]; Experiment F, 30 mcg., s.c. + estradiol 0.15 mcg.) of 40.9 mg. The Uterine weight ([5]; Experiment F, 300 mcg., s.c. + estradiol 0.15 mcg.) was 36.5 mg, the Uterine weight ([5]; Experiment G, 3 mg., s.c. + estradiol 3 mcg.) was 30.2 mg and the Uterine weight ([5]; Experiment G, 3 mcg., s.c. + estradiol 3 mcg.) was 71.9 mg. It also gave a Uterine weight ([5]; Experiment G, 30 mcg., s.c. + estradiol 3 mcg.) of 42.2 mg, a Uterine weight ([5]; Experiment G, 300 mcg., s.c. + estradiol 3 mcg.) of 33.7 mg and a Uterine weight ([5]; Experiment H, 3 mg., s.c. + estradiol 30 mcg.) of 33.1 mg. The Uterine weight ([5]; Experiment H, 3 mcg., s.c. + estradiol 30 mcg.) was 92.7 mg, the Uterine weight ([5]; Experiment H, 30 mcg., s.c. + estradiol 30 mcg.) was 60.2 mg and the Uterine weight ([5]; Experiment H, 300 mcg., s.c. + estradiol 30 mcg.) was 48.9 mg.

Reference: US4418068A, “Antiestrogenic and antiandrugenic benzothiophenes” (Eli Lilly and Company, priority 1981, dated 1983)
